Assay results reported in patent publication US20060160814A1, “Phosphodiesterase 10 inhibitors” (priority 2004, published 2006).
Counter-ions that a name gives are not always drawn.

COc1cc2nncc(C(C#N)C3=NC(C)(C)CN3C(C)C)c2cc1OC (stereo not shown) (as salt: hydrochloride) [Compound 110, (4,5-Dihydro-4,4-dimethyl-1-isopropyl-1H-imidazol-2-yl) (6,7-dimethoxycinnolin-4-yl)-acetonitrile hydrochloride]
melting point: 210 to 212 °C (dec.)
